Consider two compounds from patent US9797913B2, “Alzheimer's disease-specific alterations of the ERK1/ERK2 phosphorylation ratio-alzheimer's disease-specific molecular biomarkers (ADSMB)” (BLANCHETTE ROCKEFELLER NEUROSCIENCES INSTITUTE, priority 2005, dated 2017).

“Also recorded” adds a separate entry of the source.

Assay [1] deals with Erk1/Erk2 phosphorylation ratio in Aβ(1-42)-treated human fibroblasts. The experiment in a line: Bryostatin reversal of the Aβ(1-42)-induced Alzheimer's phenotype (ADSMB) in control fibroblasts. The format is cell-based. As to conditions: AC cell lines, 1.0 μM Aβ(1-42) 24 hrs followed by 0.1 nM bryostatin 20 min. How it is done:
Preparation of Aβ(1-42) solution: Initially 1 mg of Aβ(1-42) was dissolved in hexa-fluoroisopropanol (Sigma, St. Louis, Mo.) at a concentration of 3 mM and separated into aliquots in sterile microcentrifuge tubes. Hexa-fluoroisopropanol was removed under vacuum and lyophilized. The Aβ(1-42) films were stored at −20° C. under dry conditions until use. 5 mM Aβ(1-42) stock solution was prepared from the stored Aβ(1-42) in DMSO just before the experiment. 1.0 μM stock solution was prepared in DMEM medium (supplemented with 10% serum and penicillin/streptomycin) by dissolving Aβ(1-42) from a DSMO stock solution. […] Total Erk1, Erk2 and the phosphorylated forms of Erk1 and Erk2 (p-Erk1, p-Erk2) were determined using specific antibodies: anti-regular Erk1/2 and anti-phospho ERK1/2. […]
Signals of the Western blot protein bands were scanned with a Fuji LAS-1000 Plus scanner. The intensity of Erk1, Erk2, p-Erk1 and p-Erk2 were measured from scanned protein bands by a specially designed software developed by Dr. Nelson in our Institute (Blanchette Rockefeller Neurosciences Institute, Rockville, Md.). The intensity was measured by strip densitometry. The protein bands were selected by strip and each pixel density was calculated after background subtraction by the software. The ratios of p-Erk1/p-Erk2 were calculated from sample (BK+) and control (BK−) respectively. […]

Another assay relates to PKC. The note with it: human fibroblasts; cited from earlier work.
The test system of assay [2] is Aβ(1-42) levels in the brains. The note with it: transgenic mice with human AD genes; cited from earlier work.
Another assay relates to AD-transgenic mice. As to conditions: chronic exposure; cited from earlier work.
In assay [3] the test system is Erk1/Erk2 phosphorylation ratio in non-AD control (AC) cells. The experiment in a line: Aβ(1-42) induction of the Alzheimer's phenotype (ADSMB, bradykinin-induced p-Erk1/p-Erk2 ratio) in control fibroblasts. As to conditions: for ADSMB: then 10 nM bradykinin 10 min. The format is cell-based, human. How it is done:
Preparation of Aβ(1-42) solution: Initially 1 mg of Aβ(1-42) was dissolved in hexa-fluoroisopropanol (Sigma, St. Louis, Mo.) at a concentration of 3 mM and separated into aliquots in sterile microcentrifuge tubes. Hexa-fluoroisopropanol was removed under vacuum and lyophilized. The Aβ(1-42) films were stored at −20° C. under dry conditions until use. 5 mM Aβ(1-42) stock solution was prepared from the stored Aβ(1-42) in DMSO just before the experiment. 1.0 μM stock solution was prepared in DMEM medium (supplemented with 10% serum and penicillin/streptomycin) by dissolving Aβ(1-42) from a DSMO stock solution. DMEM medium containing 1.0 μM Aβ(1-42) was added to non-AD control (AC) cells at 90-100% confluence stage in 25 mL cultured flask and kept at cell culture incubator (at 37° C. with 5% CO2) for 24 hrs. Cells were ‘starved’ in serum free medium (DMEM) for 16 hours. 10 nM bradykinin (in DMSO) solution was prepared in DMEM medium with 10% serum. 7 mL of 10 nM BK solution were added to the 25 mL cultured flask and incubated at 37° C. for 10 min. For the controls, the same amount of DMSO was added in DMEM medium with 10% serum. 7 mL of this medium with DMSO (<0.01%) were added to the 25 mL cultured flask and incubated at 37° C. for 10 min. After washing four times with cold (4° C.) 1×PBS, flasks were kept in a dry ice/ethanol mixture for 15 min. Flasks were removed from the dry ice/ethanol mixture and then 100 μL of lysis buffer (10 mM Tris, pH 7.4, 150 mM NaCl, 1 mM EDTA, 1 mM EGTA, 0.5% NP-40, 1% Triton X-100, 1% protease inhibitor cocktail, 1% ser/thr/tyrosine phosphatase inhibitor cocktails) was added into each flask. Flasks were kept on an end-to end shaker in a cold room (4° C.) for 30 min and cells were collected from each flask with a cell scraper. Cells were sonicated and then centrifuged at 14000 rpm for 15 min, and the supernatant was used for Western blotting after total protein assay. Total Erk1, Erk2 and the phosphorylated forms of Erk1 and Erk2 (p-Erk1, p-Erk2) were determined using specific antibodies: anti-regular Erk1/2 and anti-phospho ERK1/2. At least three bradykinin treated flasks (BK+) and correspondingly three control flasks (BK−) were included for each cell line to minimize errors in measurement.
Signals of the Western blot protein bands were scanned with a Fuji LAS-1000 Plus scanner. The intensity of Erk1, Erk2, p-Erk1 and p-Erk2 were measured from scanned protein bands by a specially designed software developed by Dr. Nelson in our Institute (Blanchette Rockefeller Neurosciences Institute, Rockville, Md.). The intensity was measured by strip densitometry. The protein bands were selected by strip and each pixel density was calculated after background subtraction by the software. The ratios of p-Erk1/p-Erk2 were calculated from sample (BK+) and control (BK−) respectively. The following formula was used to distinguish between AD and non-AD cases: ADSMB=[p-Erk1/p-Erk2]^BK+−[p-Erk1/p-Erk2]^BK− ADSMB=Alzheimer's Disease-Specific Molecular Biomarker

Consider `CCC/C=C/C=C/C(=O)O[C@H]1/C(=C/C(=O)OC)C[C@H]2C[C@H]([C@@H](C)O)OC(=O)C[C@H](O)C[C@@H]3C[C@H](OC(C)=O)C(C)(C)[C@](O)(C[C@@H]4C/C(=C/C(=O)OC)C[C@H](/C=C/C(C)(C)[C@]1(O)O2)O4)O3` [Bryostatin], for which the “ADSMB after Aβ(1-42) then bryostatin treatment (in words)” value in assay [1] was “entirely reversed”; in assay [1] (listed as bryostatin) it was “small and negative”. Moreover, in the assay with PKC, the PKC activation entry was “enhance PKC activation”. In addition, the “Aβ(1-42) levels in the brains” value in assay [2] was “reduce Aβ(1-42) levels”. For the same compound, the survival entry in the assay with AD-transgenic mice is given as “greatly increased survival”.

In the case of Beta amyloid (1-42) [Aβ], in assay [3] (average of AC cell lines, 1.0 μM Aβ(1-42) 24 hrs, P < 0.001 vs control), the “ADSMB Average ± SE” value came out at 0.13 ± 0.01. Also, the ADSMB in assay [3] (cell line AG06959, 1.0 μM Aβ(1-42) 24 hrs) is 0.13; in assay [3] (cell line AG07732, 1.0 μM Aβ(1-42) 24 hrs), 0.12; in assay [3] (cell line AG09977, 1.0 μM Aβ(1-42) 24 hrs) it was 0.13; in assay [3] (cell line AG11363, 1.0 μM Aβ(1-42) 24 hrs) it was 0.16. In assay [3] (control (non-AD) cell lines, 1.0 μM Aβ(1-42), 24 hours), the “ADSMB after Aβ(1-42) treatment (in words)” value was “abnormal positively valued ADSMB phenotype; also recorded: higher and positive”.
